This is an account of results in patent US8008077B2, “Photochemical internalization for delivery of molecules into the cytosol” (priority 2000, dated 2011).

One test has as its system THX cells. In words: Light-induced (PCI) transfection of THX cells with pEGFP-N1/polylysine complex, GFP expression by flow cytometry. The settings on record: for "light before" approach compared with "light after" approach, poly-L-lysine mediated transfection: photosensitiser 2 μg/ml TPPS2a or 75 μg/ml TPPS4, pEGFP-N1/PLL complex 4 h. It counts as cell-based, human. How it is done: (§1) The human melanoma cell line THX was established from tumour tissue obtained from a patient treated for metastatic malignant melanoma at the Norwegian Radium Hospital (Aamdal et al., 1986., Int. J. Cancer, 37, 579), and grown in RMPI 1640 (Gibco-BRL) supplemented with 10% FCS (Gibco-BRL) and 2 mM glutamine (Gibco-BRL). The human colon carcinoma cell line HCT 116 was obtained from American Type Culture Collection (ATCC no. CCL-247) and grown in RPMI 1640 medium supplemented with 10% foetal calf serum, 100 U/ml penicillin, […] streptomycin and 2 mM glutamine (all Gibco BRL, Paisley, UK).
Two different light sources were used for treatment of the cells, both consisting of a bank of 4 fluorescent tubes. […]
(§2) The cells were trypsinized, centrifuged, resuspended in 400 μl of culture medium and filtered through a 50 μm mesh nylon filter. Then the cells were analyzed by a FACS-Calibur (Becton Dickinson) flow cytometer. […] Fluorescein-fluorescence (for example green Fluorescent protein (GFP)) was measured through a 510-530 nm filter after excitation with an argon laser (200 mW) tuned on 488 nm. AlPcS2a was measured through a 670 nm longpass filter after excitation with a diode laser (50 mW) tuned on 635 nm. […] The data were analysed with CELLQuest Software (Becton Dickinson).
THX cells were treated with 20 μg/ml AlPcS2a for 18 hours, washed and incubated in sensitizer-free medium for 3 hours followed by 1 hour incubation with 5 μg pEGFP-N1/polylysine complex before light exposure for 1, 2, 3 or 4 minutes. […] GFP expression was analysed by flow cytometry 48 hours after light exposure. […]
THX cells were treated with 20 μg/ml AlPcS2a for 18 hours, washed and incubated in sensitizer-free medium for 4 hours before 3 minutes of light treatment. […] GFP expression was analysed by flow cytometry 48 hours after light exposure. […]

The next test deals with HCT 116 cells. In words: Light-induced (PCI) transfection of HCT 116 cells with pEGFP-N1/polylysine complex, GFP expression by flow cytometry. It counts as cell-based, human. How it is done:
as §1
Two different light sources were used for treatment of the cells, both consisting of a bank of 4 fluorescent tubes. Cells treated with TPPS4, TPPS2a, and 3-THPP (Porphyrin Products, Logan, Utah) were exposed to blue light (model 3026; Appl. Photophysics, London, UK) with a light intensity reaching the cells of 1.5 mW/cm^2 while cells treated with AlPcS2a (Porphyrin Products, Logan, Utah) were exposed to red light (Philips TL 20W/09) filtered through a Cinemoid 35 filter with a light intensity reaching the cells of 1.35 mW/cm^2.
[…] The cells were treated with pEGFP-N1 polylysine complex for 4 hours immediately before or after exposure to light. […]
as §2
The cells were treated with pEGFP-N1/polylysine complex for 4 hours immediately before or after exposure to light as indicated on FIG. 2. The expression of GFP was measured by flow cytometry 2 days after the light exposure. […]
On the technique in general: A flow cytometer gives signals particle by particle.

As to `O=S(=O)(O)c1ccc(-c2c3nc(c(-c4ccc(S(=O)(=O)O)cc4)c4ccc([nH]4)c(-c4ccc(S(=O)(=O)O)cc4)c4nc(c(-c5ccc(S(=O)(=O)O)cc5)c5ccc2[nH]5)C=C4)C=C3)cc1` [TPPS4], the “"light before" approach compared with "light after" approach, poly-L-lysine mediated transfection” value in the test on THX cells was “works slightly better”; in the test on HCT 116 cells (75 μg/ml TPPS4, text prints THX cells, heading and FIG. 19 HCT 116 cells) it was “works as well as”.

As for `O=S(=O)(O)c1ccc(-c2c3nc(c(-c4ccc(S(=O)(=O)O)cc4)c4ccc([nH]4)c(-c4ccccc4)c4nc(c(-c5ccccc5)c5ccc2[nH]5)C=C4)C=C3)cc1` [TPPS2a, Tetraphenylporphine disulfonate], the “"light before" approach compared with "light after" approach, poly-L-lysine mediated transfection” value in the test with THX cells is “works as well as”; in the test with HCT 116 cells (HCT 116 cells, TPPS2a, pEGFP-N1/PLL complex 4 h) it was “works as well as”. For the molecule `Oc1cccc(-c2c3nc(c(-c4cccc(O)c4)c4ccc([nH]4)c(-c4cccc(O)c4)c4nc(c(-c5cccc(O)c5)c5ccc2[nH]5)C=C4)C=C3)c1` [3-THPP], in the test on THX cells (0.25 μg/ml 3-THPP 18 h, light before 1 h pEGFP-N1/polylysine complex), the “increase in GFP expression with this photosensitizer” value is on record as “only a minor increase in GFP expression”. Take poly-D-lysine: the “PCI with the "light before" protocol, poly-D-lysine as transfection agent” value with HCT 116 cells (HCT 116 cells, complex with pEGFP-N1, variable irradiation times) is given as “works well”.
